Source: patent US5750391A, “Filariid nematode cysteine protease proteins” (Heska Corporation, priority 1995, dated 1998)
“Also recorded” adds a separate entry of the source. Read-outs that look alike come from different tables or passages of the source.

What was measured:
astacin = conditions: cited from earlier work
D. immitis larvae = assay: Effect of protease inhibitors on larval molting (L3 cultured in NI medium); assay type: cell-based, Dirofilaria immitis; conditions: for % molt: L3 larvae, 72 hours, 37° C.; for inhibition at 1000 µM / inhibition at 2500 µM / inhibition at 5000 µM: Dirofilaria immitis, 72 h, read-out: % reduction (of molt vs control)

SMILES	inhibition of astacin activity (astacin)	% molt (D. immitis larvae; 1.0 mM inhibitor) [%]	% molt (D. immitis larvae; 2.5 mM inhibitor) [%]	% molt (D. immitis larvae; 5.0 mM inhibitor) [%]	inhibition at 1000 µM (D. immitis larvae) [%]	inhibition at 2500 µM (D. immitis larvae) [%]	inhibition at 5000 µM (D. immitis larvae) [%]	movement of treated larvae compared to controls (D. immitis larvae; observed daily throughout the study)	ability of the larvae to molt (D. immitis larvae; treatment of L3, 1 to 5 mM)	ability of the larvae to molt (D. immitis larvae)	condition of treated larvae (D. immitis larvae)	movement of treated larvae compared to controls (D. immitis larvae)
c1cnc2c(c1)ccc1cccnc12 [1,10-phenanthroline]	inhibited											
CC(C)C[C@H](NC(=O)[C@@H](O)[C@H](N)Cc1ccccc1)C(=O)O [Bestatin]		60.0	34.8	4.9	27.3	57.9	94.1	moved much more slowly	inhibit molting; also recorded: significantly reduces the ability of the larvae to molt			
O=C(O)CN(CCN(CC(=O)O)CC(=O)O)CC(=O)O [EDTA, ethylene diamine tetraacetic acid]	inhibited											
CC(C)C[C@H](NP(=O)(O)O[C@@H]1O[C@@H](C)[C@H](O)[C@@H](O)[C@H]1O)C(=O)N[C@@H](Cc1c[nH]c2ccccc12)C(=O)O [Phosphoramidon]	not by phosphoramidon				48.4	85.1	100			inhibit molting; also recorded: significantly reduces the ability of the larvae to molt	in poor shape	very active
